{
  "source": "patent EP0067084B1",
  "about": "“Eye-lotion compositions for the treatment of conjunctivitis and keratitis” (Laboratoires P.O.S. Société Anonyme dite:, priority 1981, dated 1982)",
  "key": {"chien": {"tested_on": "chien", "assay": "Chronic toxicity in the dog, oral, 13 weeks", "type": "in vivo", "conditions": "35 mg/Kg/jour, 13 semaines"}, "[1]": {"assay": "Solubility (description of the product)", "type": "physicochemical"}, "lapin": {"tested_on": "lapin", "assay": "Chronic toxicity in the rabbit, ocular instillation, 13 weeks", "type": "in vivo", "conditions": "instillation oculaire, 4 doses par jour, solution à 0,9 g (pour 100 ml), 13 semaines"}},
  "data": [
    {"molecule": "CCCCCCCCCCCCOCCCN", "note": "[Lopa, amino-1 dodécyloxy-3 propane]", "values": [
      {"measurement": "toxicité locale et/ou systématique", "setting": "chien", "result": "aucune toxicité locale et/ou systématique"},
      {"measurement": "solubility in water", "setting": "[1]; eau", "result": "insoluble dans l'eau"},
      {"measurement": "solubility in organic solvents", "setting": "[1]; méthanol, chloroforme, acétone, benzène", "result": "soluble dans divers solvants organique"},
      {"measurement": "toxicité locale et/ou systématique", "setting": "lapin", "result": "aucune toxicité locale et/ou systématique"}
    ]}
  ]
}
